In the NIST ThermoML archive (doi:10.1016/j.jct.2019.03.035):

Assay: molar heat capacity at constant pressure; xn = mol fraction of the nth substance listed
Details: 100 kPa, Liquid, DSC, x1 = 0.53

N#Cc1ccccc1 [benzonitrile] + CCCCCCCCCC
Details	molar heat capacity at constant pressure [J/K/mol]
281.74 K	261.8
281.89 K	260.4
282.04 K	262.8
282.19 K	264
282.34 K	264.4
282.48 K	263.4
282.63 K	264
282.78 K	263.3
282.93 K	263.9
283.08 K	266.3
283.23 K	265.2
283.38 K	266.7
283.52 K	266.3
283.67 K	268.2
283.82 K	266.5
283.97 K	267.5
284.12 K	266.6
284.26 K	265.9
284.41 K	266.6
284.56 K	268
284.71 K	266.6
284.86 K	268.5
285.01 K	265.8
285.16 K	269.9
285.3 K	270.2
285.45 K	268.9
285.6 K	269.8
285.75 K	271.8
285.9 K	271.1
286.05 K	270.5
286.19 K	273.2
286.34 K	273.4
286.49 K	278.6
286.64 K	283.9
286.79 K	282.2
286.94 K	285.9
287.09 K	285.2
287.23 K	307.6
287.38 K	254
287.53 K	250.3
287.68 K	248.6
287.83 K	246.7
287.98 K	247.4
288.12 K	245.8
288.27 K	246
288.42 K	245.6
288.57 K	244.9
288.72 K	244.8
288.87 K	244.5
289.01 K	244.3
289.16 K	243.6
289.31 K	244.2
289.46 K	243.9
289.61 K	244.1
289.76 K	243.4
289.9 K	243.5
290.05 K	243.5
290.2 K	243.2
290.35 K	243.1
290.5 K	243.2
290.65 K	243.1
290.83 K	243
290.98 K	241.8
291.13 K	243
291.28 K	243.4
291.43 K	242.8
291.57 K	242.5
291.72 K	242.7
291.87 K	242.8
292.02 K	242.4
292.17 K	242.1
292.32 K	241.7
292.46 K	242.5
292.61 K	242.1
292.76 K	241.7
292.91 K	242.6
293.06 K	242
293.21 K	242.1
293.36 K	242.4
293.5 K	241.7
293.65 K	242.3
293.8 K	242.2
293.95 K	242.1
294.1 K	241.7
294.25 K	241.9
294.39 K	241.8
294.54 K	242.1
294.69 K	242.1
294.84 K	242.3
294.99 K	241.7
295.14 K	242.2
295.29 K	242.1
295.43 K	241.7
295.58 K	242
295.73 K	242.1
295.88 K	242.8
296.03 K	242.1
296.18 K	242.8
296.32 K	242.2
296.47 K	241.8
296.62 K	241.1
297.05 K	242.4
297.34 K	242.5
297.62 K	242.5
297.91 K	242.4
298.19 K	242.5
298.47 K	242.7
298.76 K	242.6
299.04 K	242.7
299.32 K	242.8
299.61 K	242.9
299.89 K	242.9
300.18 K	243
300.46 K	243.1
300.74 K	243
301.03 K	243
301.31 K	243.1
301.6 K	243.2
301.88 K	243.2
302.16 K	243.3
302.45 K	243.4
302.73 K	243.5
303.01 K	243.5
303.3 K	243.6
303.58 K	243.7
303.87 K	243.7
304.15 K	243.8
304.43 K	243.9
304.72 K	243.9
305 K	244.1
305.29 K	244.1
305.57 K	244
305.85 K	244.2
306.14 K	244.3
306.42 K	244.3
306.7 K	244.4
306.99 K	244.5
307.27 K	244.6
307.56 K	244.6
307.84 K	244.7
308.12 K	244.9
308.41 K	244.8
308.69 K	244.9
308.98 K	245.1
309.26 K	245
309.54 K	245.1
309.83 K	245.2
310.11 K	245.4
310.39 K	245.5
310.68 K	245.5
310.96 K	245.5
311.25 K	245.7
311.53 K	245.7
311.81 K	245.8
312.1 K	245.9
312.38 K	246
312.67 K	246
312.95 K	246.1
313.23 K	246.3
313.52 K	246.2
313.8 K	246.5
314.08 K	246.5
314.37 K	246.6
314.65 K	246.5
314.94 K	246.7
315.22 K	246.8
315.5 K	246.9
315.79 K	246.9
316.07 K	247
316.36 K	247.1
316.64 K	247.3
316.92 K	247.4
317.21 K	247.5
317.49 K	247.5
317.77 K	247.6
318.06 K	247.7
318.34 K	247.7
318.63 K	247.8
318.91 K	248
319.19 K	248.1
319.48 K	248.2
319.76 K	248.2
320.05 K	248.3
320.33 K	248.4
320.61 K	248.5
320.9 K	248.5
321.18 K	248.6
321.46 K	248.7
321.75 K	248.9
322.03 K	249
322.32 K	249
322.6 K	249.1
322.88 K	249.3
323.17 K	249.3
323.45 K	249.5
323.74 K	249.5
324.02 K	249.6
324.3 K	249.7
324.59 K	249.9
324.87 K	250.1
325.16 K	250.2
325.44 K	250.1
325.72 K	250.1
